From ChEMBL document CHEMBL5634099, “Pyrrole-thiazolidinone hybrids as a new structural class of broad-spectrum anti-infectives” (Eur J Med Chem, 2023) come the findings set out here.

For one data set, the system named is Escherichia coli. The data set can be described thus: Antibacterial activity against Escherichia coli ATCC 25922 assessed as bacterial growth inhibition incubated for 16 to 18 hrs by CLSI based susceptibility testing method. The format is functional. To be noted: time 16-18 hrs.
In data set [1] the test system is Staphylococcus aureus. The data set can be described thus: Antibacterial activity against Staphylococcus aureus ATCC 29213 assessed as bacterial growth inhibition incubated for 16 to 18 hrs by CLSI based susceptibility testing method. The class given is functional. As to conditions: time 16-18 hrs.
For another data set, the system named is Klebsiella pneumoniae. The data set can be described thus: Antibacterial activity against Klebsiella pneumoniae BAA 1705 assessed as bacterial growth inhibition incubated for 16 to 18 hrs by CLSI based susceptibility testing method. To be noted: time 16-18 hrs. The format is functional.
Another data set has as its system Acinetobacter baumannii. The data set can be described thus: Antibacterial activity against Acinetobacter baumannii BAA 1605 assessed as bacterial growth inhibition incubated for 16 to 18 hrs by CLSI based susceptibility testing method. The class given is functional. As to conditions: time 16-18 hrs.
A further data set concerns Pseudomonas aeruginosa. The data set can be described thus: Antibacterial activity against Pseudomonas aeruginosa ATCC 27853 assessed as bacterial growth inhibition incubated for 16 to 18 hrs by CLSI based susceptibility testing method. The class given is functional. As to conditions: time 16-18 hrs.
Data set [2] concerns Mycobacterium tuberculosis. The data set can be described thus: Antimycobacterial activity against Mycobacterium tuberculosis H37Rv ATCC 27294 assessed as bacterial growth inhibition incubated for 7 days by resazurin dye based assay. To be noted: H37Rv ATCC 27294, 168 h, time 7 day. The class given is functional. On the technique in general: Alamar Blue is a resazurin reagent that responds to reducing activity.

The subject of data set [3] is Mycobacteroides abscessus. The data set can be described thus: Antimycobacterial activity against Mycobacterium abscessus ATCC 19977 assessed as bacterial growth inhibition incubated for 7 days by resazurin dye based assay. The format is functional. As to conditions: ATCC 19977, 168 h, time 7 day.
For data set [4], the system named is Mycolicibacterium fortuitum. The data set can be described thus: Antimycobacterial activity against Mycobacterium fortuitum ATCC 6841 assessed as bacterial growth inhibition incubated for 7 days by resazurin dye based assay. The class given is functional. As to conditions: ATCC 6841, 168 h, time 7 day.
Another data set relates to Mycobacteroides chelonae. The data set can be described thus: Antimycobacterial activity against Mycobacteroides chelonae ATCC 35752 assessed as bacterial growth inhibition incubated for 7 days by resazurin dye based assay. The class given is functional. To be noted: ATCC 35752, 168 h, time 7 day.
A short description of data set [5]: Cytotoxicity against African green monkey Vero cells assessed as reduction in cell viability incubated for 72 hrs by MTT assay. The format is toxicity, cell-based. As to conditions: chlorocebus sabaeus. On the technique in general: Formazan colour is commonly taken as a measure of viable cells.
Data set [6] can be described thus: Selectivity index, ratio of CC50 for African green monkey Vero cells to IC50 for Staphylococcus aureus ATCC 29213. As to conditions: read-out: Selectivity Index. The format is toxicity.
Data set [7] concerns Staphylococcus aureus. The data set can be described thus: Antibacterial activity against methicillin-sensitive Staphylococcus aureus ATCC 29213 clinical isolate assessed as bacterial growth inhibition incubated for 16 to 18 hrs by CLSI based susceptibility testing method. The class given is functional. As to conditions: time 16-18 hrs.
For data set [8], the system named is Staphylococcus aureus. The data set can be described thus: Antibacterial activity against methicillin-resistant Staphylococcus aureus NR 100 clinical isolate assessed as bacterial growth inhibition incubated for 16 to 18 hrs by CLSI based susceptibility testing method. The class given is functional. To be noted: time 16-18 hrs.
The test system of data set [9] is Staphylococcus aureus. The data set can be described thus: Antibacterial activity against methicillin-resistant Staphylococcus aureus NR 119 clinical isolate assessed as bacterial growth inhibition incubated for 16 to 18 hrs by CLSI based susceptibility testing method. To be noted: time 16-18 hrs. The class given is functional.
Data set [10] deals with Staphylococcus aureus. The data set can be described thus: Antibacterial activity against methicillin-resistant Staphylococcus aureus NR 129 clinical isolate assessed as bacterial growth inhibition incubated for 16 to 18 hrs by CLSI based susceptibility testing method. The class given is functional. To be noted: time 16-18 hrs.
Data set [11] deals with Staphylococcus aureus. The data set can be described thus: Antibacterial activity against methicillin-resistant Staphylococcus aureus NR 186 clinical isolate assessed as bacterial growth inhibition incubated for 16 to 18 hrs by CLSI based susceptibility testing method. The format is functional. To be noted: time 16-18 hrs.
Data set [12] concerns Staphylococcus aureus. The data set can be described thus: Antibacterial activity against methicillin-resistant Staphylococcus aureus NR 191 clinical isolate assessed as bacterial growth inhibition incubated for 16 to 18 hrs by CLSI based susceptibility testing method. The format is functional. As to conditions: time 16-18 hrs.
Data set [13] has as its system Staphylococcus aureus. The data set can be described thus: Antibacterial activity against methicillin-resistant Staphylococcus aureus NR 192 clinical isolate assessed as bacterial growth inhibition incubated for 16 to 18 hrs by CLSI based susceptibility testing method. As to conditions: time 16-18 hrs. The format is functional.
For data set [14], the system named is Staphylococcus aureus. The data set can be described thus: Antibacterial activity against methicillin-resistant Staphylococcus aureus NR 193 clinical isolate assessed as bacterial growth inhibition incubated for 16 to 18 hrs by CLSI based susceptibility testing method. The class given is functional. As to conditions: time 16-18 hrs.
Data set [15] concerns Staphylococcus aureus. The data set can be described thus: Antibacterial activity against methicillin-resistant Staphylococcus aureus NR 194 clinical isolate assessed as bacterial growth inhibition incubated for 16 to 18 hrs by CLSI based susceptibility testing method. The class given is functional. To be noted: time 16-18 hrs.
Data set [16] relates to Staphylococcus aureus. The data set can be described thus: Antibacterial activity against methicillin-resistant Staphylococcus aureus NR 198 clinical isolate assessed as bacterial growth inhibition incubated for 16 to 18 hrs by CLSI based susceptibility testing method. The class given is functional. As to conditions: time 16-18 hrs.
Data set [17] relates to Staphylococcus aureus. The data set can be described thus: Antibacterial activity against vancomycin-resistant Staphylococcus aureus VRS 1 clinical isolate assessed as bacterial growth inhibition incubated for 16 to 18 hrs by CLSI based susceptibility testing method. The format is functional. As to conditions: time 16-18 hrs.
The subject of data set [18] is Staphylococcus aureus. The data set can be described thus: Antibacterial activity against vancomycin-resistant Staphylococcus aureus VRS 4 clinical isolate assessed as bacterial growth inhibition incubated for 16 to 18 hrs by CLSI based susceptibility testing method. The class given is functional. To be noted: time 16-18 hrs.
Data set [19] concerns Staphylococcus aureus. The data set can be described thus: Antibacterial activity against vancomycin-resistant Staphylococcus aureus VRS 12 clinical isolate assessed as bacterial growth inhibition incubated for 16 to 18 hrs by CLSI based susceptibility testing method. As to conditions: time 16-18 hrs. The class given is functional.
In data set [20] the test system is Staphylococcus aureus. The data set can be described thus: Antibiofilm activity against Staphylococcus aureus ATCC 29213 assessed as reduction in biofilm formation at 10 times MIC incubated for 24 hrs by absorbance based assay relative to control. The class given is functional. The arrangement: scale not given: the % may be the effect or the level left.
A short description of data set [21]: Selectivity index, ratio of CC50 for African green monkey Vero cells to IC50 for Mycobacterium tuberculosis H37Rv ATCC 27294. The format is toxicity. To be noted: read-out: Selectivity Index.

For orientation: MIC means the lowest concentration found to suppress growth. The CC50 is the concentration at which the toxic effect on the cells reaches its halfway point.

Values after ≈ are worked out from the molar mass of the structure shown.

For the compound `COc1ccccc1-n1c(C)cc(/C=C2\S/C(=N/c3nccs3)NC2=O)c1C`, the minimal inhibitory concentration (MIC) in the data set with Escherichia coli is greater than 64 µg/mL; with Staphylococcus aureus [1], 0.5 µg/mL (≈ 1.22 µM); in the data set with Klebsiella pneumoniae it was greater than 64 µg/mL; in the data set with Acinetobacter baumannii, greater than 64 µg/mL; in the data set with Pseudomonas aeruginosa, greater than 64 µg/mL; in [2], 2 µg/mL (≈ 4.87 µM). Besides, the MIC was greater than 64 µg/mL in [3]; greater than 64 µg/mL in [4]; greater than 64 µg/mL in the data set on Mycobacteroides chelonae; 0.5 µg/mL (≈ 1.22 µM) with Staphylococcus aureus [7]; 1 µg/mL (≈ 2.44 µM) in the data set with Staphylococcus aureus [8]; 2 µg/mL (≈ 4.87 µM) with Staphylococcus aureus [9]. Also, the minimum inhibitory concentration (MIC) was 2 µg/mL (≈ 4.87 µM) in the data set with Staphylococcus aureus [10]; 1 µg/mL (≈ 2.44 µM) in the data set with Staphylococcus aureus [11]; 2 µg/mL (≈ 4.87 µM) in the data set on Staphylococcus aureus [12]; 2 µg/mL (≈ 4.87 µM) in the data set with Staphylococcus aureus [13]; 2 µg/mL (≈ 4.87 µM) in the data set on Staphylococcus aureus [14]; 2 µg/mL (≈ 4.87 µM) in the data set on Staphylococcus aureus [15]. For the same compound, the minimum inhibitory concentration (MIC) with Staphylococcus aureus [16], with Staphylococcus aureus [17], with Staphylococcus aureus [18] and with Staphylococcus aureus [19] was 2 µg/mL (≈ 4.87 µM) each time. In addition, the half-maximal cytotoxic concentration (CC50) at 72 h in [5] was found to be 40 µg/mL (≈ 97.4 µM). Also, the selectivity ratio in data set [6] was determined as 80. Also, the Activity in the data set on Staphylococcus aureus [20] was greater than 11%.
On to `Cc1ccc(-n2c(C)cc(/C=C3\S/C(=N/c4nccs4)NC3=O)c2C)cc1C`, for which the MIC in the data set with Escherichia coli was greater than 64 µg/mL; with Staphylococcus aureus [1], 16 µg/mL (≈ 39.2 µM); in the data set with Klebsiella pneumoniae, greater than 64 µg/mL; with Acinetobacter baumannii it was greater than 64 µg/mL; in the data set with Pseudomonas aeruginosa, greater than 64 µg/mL; in data set [2], 0.5 µg/mL (≈ 1.22 µM). Also, the MIC (in data set [3]; in data set [4]; with Mycobacteroides chelonae) was greater than 64 µg/mL each time. Further, the 50% cytotoxic concentration (CC50) at 72 h in data set [5] turned out to be 40 µg/mL (≈ 97.9 µM). The selectivity ratio in [21] amounted to 80.
